Assays:
[1] = test system: mouse aortic smooth muscle cells (MASMs); assay: Intracellular H2O2 (ROS values, H2DCFDA) in MASMs of arteriosclerosis model mice; format: cell-based; conditions: MASMs from PGC-1α+/+ApoE−/− mice; SL added to culture liquid
Description: (§1) For cell-level tests, mouse aortic smooth muscle cells (MASMs) were isolated from the control group fed with a high-fat diet (Rodent Diet with 60 kcal % fat) without SL administration (Griendling et al., 1991), and the SL (3′-SL & 6′-SL) compositions were added to the culture liquid, followed by comparison. For intracellular H2O2 measurement (ROS values), the cells were cultured in 12-well culture plates immersed in 0.1% bovine calf serum. The intracellular ROS values were measured using H2DCFDA. For assay, the cells were cultured together with H2DCFDA in HBSS buffer for 30 minutes. The cells were trypsinized, washed, and lysed in HBSS. The fluorescence values were measured immediately by a CytoFluor plate reader (FIG. 19a).
(§2) In FIGS. 19a and 19b, MASMs were extracted from the model mouse (PGC-1α^+/+ApoE^−/−) control group, and the SL (3′-SL & 6′-SL) compositions were added to the culture liquid to conduct comparison.
(§3) FIGS. 19a and 19b show the measurement results of intercellular H2O2 (ROS values) (FIG. 19a) and the measurement results of mitochondrial superoxide production (FIG. 19b). MASMs were extracted from the model mice (PGC-1α^+/+ApoE^−/−), and the SL (3′-SL & 6′-SL) compositions were added to the culture liquid to conduct comparison.

[2] = test system: Huntington's disease model mice (R6/2); assay: Rotarod travel test in Huntington's disease models; format: in vivo, mouse; conditions: R6/2 mice, oral 0.1 mg/kg/day
Excerpt: In order to investigate the changes in gene expression and cognitive ability by the treatment with SL (3′-SL & 6′-SL) compositions in Huntington's brain disease model, 4-week-old mice were purchased from Central Lab Animal (Korea). Water was freely accessible, and a commercially available pellet feed (Dooyeul Biotech, Korea) was given for one week. At 5 weeks of age, the mice were divided into three groups (composed of eight mice for each group): Eight 5-week-old male c57/BL6 mice (normal mice; initial body weight, average 25.3±4.3 g) treated with a normal diet were used for a control group. […]
In addition, the behavior improvement was evaluated through the rotarod travel time changes of the (Huntington's disease model) group, (Huntington's disease model+3′-SL) group, and (Huntington's disease model+6′-SL) group, compared with the normal mouse with a normal diet. […] The rotarod travel time was measured by using a rotarod device (rod accelerating at a revolution speed of 4-40 rpm through 3 minutes, Jungdo Instruments, Korea). After 4-week-old mice were practiced on the rotarod test, the rotarod test was performed from 5 weeks of age, and the mean time to fall was measured. […]

[3] = test system: mouse aortic smooth muscle cells (MASMs); assay: Mitochondrial superoxide production (MitoSOX Red) in MASMs of arteriosclerosis model mice; format: cell-based; conditions: MASMs from PGC-1α+/+ApoE−/− mice; SL added to culture liquid
Description: For the measurement of mitochondrial superoxide production, mitochondrial ROS was measured using MitoSOX Red (mitochondrial superoxide fluorescent marker). MASMs were extracted, and incubated with MitoSOX (4 μM) in the dark room at 37° C. for 20 minutes. The MitoSOX fluorescence was quantified by the cell fluorescence intensity read using a fluorescent plate reader (480 nm excitation/580 nm emission) (FIG. 19b).
as §2, §3

[4] = test system: mouse aortic smooth muscle cells (MASMs); assay: Intracellular H2O2 (ROS values, H2DCFDA) in MASMs of aging stimulation model mice; format: cell-based; conditions: MASMs from aging stimulation model mice; SL added to culture liquid
Description: as §1, with “In addition, for cell-level” for “For cell-level”, “by incubation.” for “by comparison.”, “0.1% bovin” for “0.1% bovine”, “(FIG. 17a).” for “(FIG. 19a).”
In FIGS. 17a and 17b, MASMs were extracted from the aging stimulation model mouse control group, and the SL (3′-SL & 6′-SL) compositions were added to the culture liquid to conduct comparison.
FIGS. 17a and 17b show the measurement results of intercellular H2O2 (ROS values) (FIG. 17a) and the measurement results of mitochondrial superoxide production (FIG. 17b).

Compound | intracellular H2O2 (ROS values) [1] | rotarod travel time vs SL non-administration group [2] | mitochondrial superoxide production [3] | intracellular H2O2 (ROS values) [4]
CC(=O)N[C@H]1[C@H]([C@H](O)[C@H](O)CO)O[C@@](O[C@H]2[C@@H](O)[C@@H](CO)O[C@@H](O[C@H]3[C@H](O)[C@@H](O)C(O)O[C@@H]3CO)[C@@H]2O)(C(=O)O)C[C@@H]1O (stereo partly drawn) [3′-SL, α-NeuNAc-(2→3)-β-D-Gal-(1→4)-D-Glc] | dropped the ROS values | less than that of 6′-SL | inhibited the mitochondrial superoxide production | dropped the ROS values
CC(=O)N[C@H]1[C@H]([C@H](O)[C@H](O)CO)O[C@@](OC[C@H]2O[C@@H](O[C@H]3[C@H](O)[C@@H](O)[C@H](O)O[C@@H]3CO)[C@H](O)[C@@H](O)[C@H]2O)(C(=O)O)C[C@@H]1O [6′-SL, α-NeuNAc-(2→6)-β-D-Gal-(1→4)-D-Glc] | dropped the ROS values | increased | inhibited the mitochondrial superoxide production | dropped the ROS values
